{"source": "paper PMC8744835", "about": "“Sterically Hindered Quaternary Phosphonium Salts (QPSs): Antimicrobial Activity and Hemolytic and Cytotoxic Properties” (International Journal of Molecular Sciences, 2021)", "key": {"P. aeruginosa": {"test_system": "P. aeruginosa", "test": "Zone-of-inhibition test of coated PC+ plastic sample", "format": "cell-based, Pseudomonas aeruginosa", "conditions": "PC+ sample immersed 1 min in 1% solution of 12a in ethanol, 37 °C 24 h", "procedure": "The inhibition-zone test is a quick and qualitative way to measure the ability of an antimicrobial agent to suppress microbial growth. The sensitivity of the method is quite high and even a small amount of residual biocide in a model system can be detected. […] In this experiment, we used cultures of the bacteria P. aeruginosa and S. aureus. First, the microbial suspension was spread on a sterile agar plate. Then, a plastic sample (PC+), which was preliminarily immersed for 1 min in a 1% solution of compound 12a in ethanol, was placed in the center of the Petri dish with agar. During the incubation period, the inoculum bacteria can only grow where is no antimicrobial agent. If the active agent is washed out of the sample into the environment (in this case, agar), bacterial growth in the area around the sample is suppressed. The width of this area is determined by the diffusion of the active compound in the vicinity. […] From the results obtained, it is clear that a relatively stable surface coating was achieved using a simple experimental procedure.\nThis sample was tested for possible release of the active compound. Tests were performed on a culture of Gram-negative bacteria P. aeruginosa and Gram-positive bacteria S. aureus. […] Then, Petri dishes were placed in an incubator at 37 °C for 24 h, and the presence of inhibition zones was evaluated."}, "S. aureus 209 P": {"test_system": "S. aureus 209 P", "test": "Bactericidal properties of coated plastic samples", "format": "cell-based, Staphylococcus aureus", "conditions": "for CFU/cm^2, Nylon: Nylon plastic", "procedure": "The plastic samples, which were 10 mm × 10 mm × 2 mm, were preliminary sterilized and placed into an ethanolic solution of 12a for 1 min. Then, the studied and control (without coating) samples were immersed in bacterial suspensions with a known concentration of bacteria (10^5–10^8 bacteria/mL) for 24 h, and the number of viable micro-organisms was then estimated.\nThe plastic samples, which were 10 mm × 10 mm × 2 mm plates, were sterilized in a medical autoclave, HG-50 (Hirayama, Japan), at 121 °C for 20 min. Then, each sample was immersed in an ethanolic solution of compound 12a at concentrations of 0.01 and 0.001% for 1 min and air dried. After treatment, the plastic samples were placed in 24-well plates with 1 sample/well. Then, 1 mL of S. aureus 209 P suspension (10^5 bacteria/mL) was added to each well. The plastic control samples were not treated with compound 12a. The culture of Staphylococcus aureus 209 P was grown for a day at 37 °C in Mueller–Hinton Broth 2. Active daily growing cultures were diluted in physiological saline (NaCl 9.0 g/L) to a concentration of 10^5 bacteria/mL and then distributed into 25-well plates containing 1 cm^2 of coating/well, with the exception of an uncoated control well. After a 24-h incubation period at 37 °C, dilution series were performed for each treatment, and 100 μL volumes of 3 dilutions were plated on sterile Mueller–Hinton agar. After 24 h, the number of colonies on each plate was counted to obtain the corresponding concentration of live bacteria."}, "[1]": {"test_system": "methicillin-resistant S. aureus MRSA-1", "test": "Antimicrobial activity, serial dilution technique in Mueller–Hinton Broth 2", "format": "cell-based, Staphylococcus aureus", "conditions": "- means non-active", "summary_of_the_method": "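Antimicrobial activity against methicillin-susceptible Staphylococcus aureus MRSA-1, a hospital isolate from a chronic tonsillitis patient that is resistant to fluoroquinolones and beta-lactams, was determined by serial dilution in Mueller–Hinton Broth 2. The bacterial load was 3.0 × 10^5 cfu/mL, incubation was at 37 °C, and growth was recorded every 24 h for 5 days.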"}, "[2]": {"test_system": "methicillin-resistant S. aureus MRSA-2", "test": "Antimicrobial activity, serial dilution technique in Mueller–Hinton Broth 2", "format": "cell-based, Staphylococcus aureus", "conditions": "- means non-active", "summary_of_the_method": "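Antimicrobial activity against methicillin-susceptible Staphylococcus aureus MRSA-2, a beta-lactam-resistant clinical isolate from a sinusitis patient at the Republican Clinical Hospital (Kazan), was assessed by serial dilution in Mueller–Hinton Broth 2. The inoculum was 3.0 × 10^5 cfu/mL. Cultures were incubated at 37 °C and read every 24 h for 5 days, in three repeat experiments.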"}, "[3]": {"test_system": "Staphylococcus aureus ATCC 6538P FDA 209P", "test": "Antimicrobial activity, serial dilution technique in Mueller–Hinton Broth 2", "format": "cell-based", "conditions": "Staphylococcus aureus, Sa, average of three ± SD, - means non-active", "summary_of_the_method": "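Using a broth serial dilution method in Mueller–Hinton Broth 2, S. aureus ATCC 6538P FDA 209P (3.0 × 10^5 cfu/mL) was exposed to compounds at 37 °C and observed daily over 5 days. MIC was the lowest concentration preventing growth; bacteriostatic absence of growth was also noted, with three replicate experiments.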"}, "[4]": {"test_system": "Bacillus cereus ATCC 10702 NCTC 8035", "test": "Antimicrobial activity, serial dilution technique in Mueller–Hinton Broth 2", "format": "cell-based", "conditions": "Bacillus cereus, Bc, average of three ± SD, - means non-active", "summary_of_the_method": "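Compounds were serially diluted in Mueller–Hinton Broth 2 and inoculated with the Gram-positive strain Bacillus cereus ATCC 10702 NCTC 8035 at 3.0 × 10^5 cfu/mL, then incubated at 37 °C. Observations were taken every 24 h over 5 days in three repeat experiments. The MIC was the lowest concentration that stopped growth, with bacteriostatic absence of growth also noted.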"}, "[5]": {"test_system": "Pseudomonas aeruginosa ATCC 9027", "test": "Antimicrobial activity, serial dilution technique in Mueller–Hinton Broth 2", "format": "cell-based", "conditions": "Pseudomonas aeruginosa, ATCC9027, Pa, average of three ± SD, - means non-active"}, "[6]": {"test_system": "Escherichia coli ATCC 25922", "test": "Antimicrobial activity, serial dilution technique in Mueller–Hinton Broth 2", "format": "cell-based", "conditions": "Escherichia coli, ATCC25922, Ec; average of three ± SD; - means non-active; read-out: Minimum Inhibitory Concentration (MIC), Ec", "summary_of_the_method": "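Growth inhibition is scored in Mueller–Hinton Broth 2 dilution series seeded with 3.0 × 10^5 cfu/mL and held at 37 °C for up to 5 days. Values reported are MICs, the lowest concentration without growth.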"}, "[7]": {"test_system": "Enterococcus faecalis ATCC 2921", "test": "Antimicrobial activity, serial dilution technique in Mueller–Hinton Broth 2", "format": "cell-based", "conditions": "Ef; average of three ± SD; - means non-active", "summary_of_the_method": "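Antibacterial activity against Enterococcus faecalis ATCC 2921 was assessed by serial dilution in Mueller–Hinton Broth 2 with a bacterial load of 3.0 × 10^5 cfu/mL. Cultures were incubated at 37 °C, with growth recorded every 24 h for 5 days, and the experiment was performed three times.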"}}, "data": [{"smiles": "CCCCCCCCCCCC[P+](C(C)(C)C)(C(C)(C)C)C(C)(C)C", "note": "[Compound 12a, tri-tert-butyl(n-dodecyl)phosphonium]", "values": [{"measurement": "zone of inhibition", "setting": "P. aeruginosa", "result": "no zones of inhibition"}, {"measurement": "bacterial growth on coated plastic", "setting": "S. aureus 209 P; 12a at a concentration of 0.01%, ABS, PLA natural and PETG plastics", "result": "complete absence of bacterial growth"}, {"measurement": "CFU/cm^2, ABS", "setting": "S. aureus 209 P; ABS plastic, 12a 0.001%, 24 h incubation with 10^5 S. aureus 209 P", "result": "2.5 × 10^3 CFU/cm^2"}, {"measurement": "CFU/cm^2, Nylon", "setting": "S. aureus 209 P; 12a 0.001%, 24 h incubation with 10^5 S. aureus 209 P", "result": "3.2 × 10^4 CFU/cm^2"}, {"measurement": "CFU/cm^2, Nylon", "setting": "S. aureus 209 P; 12a 0.01%, 24 h incubation with 10^5 S. aureus 209 P", "result": "2.0 × 10^2 CFU/cm^2"}, {"measurement": "CFU/cm^2, PC+", "setting": "S. aureus 209 P; PC+ plastic, 12a 0.001%, 24 h incubation with 10^5 S. aureus 209 P", "result": "1.2 × 10^4 CFU/cm^2"}, {"measurement": "CFU/cm^2, PETG", "setting": "S. aureus 209 P; PETG plastic, 12a 0.001%, 24 h incubation with 10^5 S. aureus 209 P", "result": "1.8 × 10^3 CFU/cm^2"}, {"measurement": "decrease of bacterial cell concentration compared to the control", "setting": "S. aureus 209 P; PETG, 12a 0.001%", "result": 27, "unit": "times"}, {"measurement": "CFU/cm^2, PLA Natural", "setting": "S. aureus 209 P; PLA Natural plastic, 12a 0.001%, 24 h incubation with 10^5 S. aureus 209 P", "result": "5.0 × 10^3 CFU/cm^2"}, {"measurement": "CFU/cm^2, PLA+", "setting": "S. aureus 209 P; PLA+ plastic, 12a 0.001%, 24 h incubation with 10^5 S. aureus 209 P", "result": "1.6 × 10^4 CFU/cm^2"}, {"measurement": "Minimum Inhibitory Concentration (MIC), MRSA-1", "setting": "[1]; MRSA-1 (resistant to fluoroquinolones and beta-lactams)", "result": "0.5 ± 0.03", "unit": "µg/mL"}, {"measurement": "MBC", "setting": "[1]; Staphylococcus aureus, MRSA, MRSA-1, read-out: Minimum Bactericidal and Fungicidal Concentration (MBC, MFC), MRSA-1", "result": "0.5 ± 0.04", "unit": "µg/mL"}, {"measurement": "Minimum Bactericidal and Fungicidal Concentration (MBC, MFC), MRSA-2", "setting": "[2]; MRSA-2", "result": "7.8 ± 0.6", "unit": "µg/mL"}, {"measurement": "MIC", "setting": "[2]; Staphylococcus aureus, MRSA, MRSA-2 (resistant to beta-lactams), read-out: Minimum Inhibitory Concentration (MIC), MRSA-2", "result": "0.5 ± 0.03", "unit": "µg/mL"}, {"measurement": "MBC", "setting": "[3]; read-out: Minimum Bactericidal and Fungicidal Concentration (MBC, MFC), Sa", "result": "0.5 ± 0.03", "unit": "µg/mL"}, {"measurement": "MIC", "setting": "[3]; read-out: Minimum Inhibitory Concentration (MIC), Sa", "result": "0.5 ± 0.03", "unit": "µg/mL"}, {"measurement": "MBC", "setting": "[4]; read-out: Minimum Bactericidal and Fungicidal Concentration (MBC, MFC), Bc", "result": "62.5 ± 5.3", "unit": "µg/mL"}, {"measurement": "MIC", "setting": "[4]; read-out: Minimum Inhibitory Concentration (MIC), Bc", "result": "1.9 ± 0.01", "unit": "µg/mL"}, {"measurement": "MBC", "setting": "[5]; read-out: Minimum Bactericidal and Fungicidal Concentration (MBC, MFC), Pa", "result": "125 ± 11", "unit": "µg/mL"}, {"measurement": "MIC", "setting": "[5]; read-out: Minimum Inhibitory Concentration (MIC), Pa", "result": "62.5 ± 5.5", "unit": "µg/mL"}, {"measurement": "MIC", "setting": "[6]", "result": "7.8 ± 0.6", "unit": "µg/mL"}, {"measurement": "Minimum Bactericidal and Fungicidal Concentration (MBC, MFC), Ef", "setting": "[7]", "result": "1.9 ± 0.1", "unit": "µg/mL"}, {"measurement": "Minimum Inhibitory Concentration (MIC), Ef", "setting": "[7]", "result": "0.9 ± 0.06", "unit": "µg/mL"}]}]}
